Reference: article PMC7842926, “Synergistic effect and ultrastructural changes in Trypanosoma cruzi caused by isoobtusilactone A in short exposure of time” (PLoS ONE, 2021)
Read-outs that look alike come from different tables or passages of the source. Where a SMILES comes first, the peptide text is derived from it. The star is where a group is joined. Cbz = O=C(OCc1ccccc1)*

Assays:
[1] = tested on: amastigotes of T. cruzi (Dm28c); test: Antiproliferative assay on intracellular amastigotes in Vero host cells; assay type: cell-based, Trypanosoma cruzi; settings: for IC50: Trypanosoma cruzi, Vero, 24 hours of treatment, confidence interval in brackets, read-out: Amastigotes (Dm28c) IC50 (CI)
Procedure: To determine the antiproliferative effect of butanolides on intracellular amastigote forms (Dm28c), Vero cells were used as host cells. Vero cells were cultured in DMEM and maintained in a CO2 atmosphere at 37°C.
After 4 h of incubation for adherence and infection, the cells were washed with 1x phosphate buffered saline (PBS) and then incubated in DMEM for 20 h to allow differentiation of internalized trypomastigotes into amastigotes.
Vero cells infected with amastigotes were incubated for 4 or 24 h with the compounds (4 concentrations within the range 4–200 μM) in DMEM. After incubation, the cells were washed, fixed in methanol, stained with 4',6-Diamidino-2-phenylindole (DAPI), and photographed using Leica DMI 6000-B fluorescence microscope. The photos obtained were analyzed using the software ImageJ version 1.5 for quantification of total Vero cells and determination of the percentage of infected cells and number of amastigotes per cell. The 50% inhibitory concentration (IC50) was calculated using the infectivity index (II) described by Ceole et al.. DMSO (1%) treatment served as negative control and benznidazole treatment served as positive control.
(§1) The 50% cytotoxic concentration (CC50), x % inhibitory concentration (ICx = IC25, IC50, IC75, or IC90), and 50% lethal concentration (LC50) values were obtained from the percentage of inhibition/death versus log concentration of each compound, by nonlinear regression with variable slope and automatic withdrawal of outliers with ROUT coefficient (Q = 5). […] Graphpad Prism software version 7.04 was used for all regressions.

[2] = tested on: epimastigote forms of Y strain (TcII); test: Epimastigote cell viability assay (MTS/PMS), Y strain; assay type: cell-based, Trypanosoma cruzi; settings: for IC50: Trypanosoma cruzi, 4 h of treatment, read-out: IC50 epimastigotes strain Y
Procedure: (§2) Epimastigote forms of three strains of T. cruzi, including Dm28c (TcI), CL Brener (TcVI), and Y strain (TcII), were maintained in liver infusion tryptose (LIT) medium supplemented with 10% fetal bovine serum at 28°C [16] were kindly provided by Oswaldo Cruz Institute/Fiocruz. For the experiments, exponential phase cultures were used. All assays were performed in triplicates in 96-well plates.
(§3) The absorbance of the formazan was measured at 490 nm using a microplate reader (Asys Expert Plus -Biochrom). In parallel, we determined the effect of 1% DMSO (negative control) and benznidazole (positive control) on the viability of epimastigotes and a replicate of each treatment was performed by fixing the epimastigotes with 4% paraformaldehyde prior to the addition of MTS/PMS (basal absorbance control).
as §1

[3] = tested on: epimastigote forms of CL Brener (TcVI); test: Epimastigote cell viability assay (MTS/PMS), CL Brener; assay type: cell-based, Trypanosoma cruzi; settings: for IC50: Trypanosoma cruzi, 4 h of treatment, read-out: IC50 epimastigotes strain CL Brener
Procedure: as §2, §3, §1

Cytotoxicity assay (MTT) = assay type: cell-based; settings: African green monkey (Cercopithecus aethiops), Vero cells (CCL-81); for CC50 at 4 h: 4 h of treatment, read-out: Vero cells (CCL-81) CC50 - 4h (CI); for CC50 at 24 h: 24 hours of treatment, confidence interval in brackets, read-out: Vero cells (CCL-81) CC50 (CI)
Procedure: Vero cells (CCL-81) isolated from the kidney of the African green monkey Cercopithecus aethiops were purchased from ATCC® (Washington DC, USA). The cells were inoculated in 200 μL of Dulbecco’s modified Eagle (DMEM) medium in 96-well plates at a concentration of 2 × 10^4 cells/well and incubated at 37°C for 24 h for adherence of the cells. Six different concentrations of the compounds (12 to 900 μM for butanolides, and 200 to 1,600 μM for benznidazole) were added to the wells. After 4 or 24 h of treatment, the cells were washed and cell viability was assessed using MTT (3-(4,5-Dimethylthiazol-2-yl)-2,5-Diphenyltetrazolium Bromide) assay (2 mg/mL). After 4 h of incubation at 37°C in a CO2 atmosphere, the wells were washed and 100% DMSO was added to solubilize the formazan crystals. The absorbance was measured at 570 nm using an ELISA plate reader (Biotek Model EL-800, VT, USA). DMSO (1%) treatment served as negative control and benznidazole treatment served as positive control.
as §1

[4] = tested on: epimastigotes of T. cruzi (Dm28c, TcI); test: Epimastigote cell viability assay (MTS/PMS), Dm28c; assay type: cell-based, Trypanosoma cruzi; settings: for IC50: Trypanosoma cruzi, read-out: Epimastigotes (Dm28c) IC50 - 4h (CI); for activity at concentrations below 50 μg/mL in epimastigotes: 72 h of treatment, Dm28c; for SI (selectivity index): Vero CC50 4 h versus epimastigote Dm28c IC50 4 h
Procedure: as §2
The effect of the isolated compounds on the viability of epimastigote forms of Dm28c strain was determined by MTS [3-(4,5-dimethylthiazol-2-yl)-5-(3-carboxymethoxyphenyl)-2-(4-sulfophenyl)-2H-tetrazolium bromide] with PMS (5-methyl-phenazinium methyl sulfate) colorimetric assay, as described by Nunes et al.. […]
as §3, §1

trypomastigotes [5] = settings: concentration greater than 40 μM, exposure time of 18 hours; cited from earlier work
trypomastigotes [6] = settings: period of treatment 24 h; read-out: IC50 against trypomastigotes; cited from earlier work
amastigote forms = settings: longer treatment periods; read-out: activity against amastigote forms; cited from earlier work
T. cruzi = settings: cited from earlier work
[7] = tested on: trypomastigote forms of the parasite (Dm28c); test: microbe, parasite or virus in culture; assay type: cell-based; settings: for LC50: Trypanosoma cruzi, 4 h of treatment, read-out: LC50 against trypomastigote forms (Dm28c); for SI (selectivity index): trypomastigotes Dm28c, 4 h, Vero cells
Procedure: Cell-derived trypomastigotes (Dm28c) were obtained from the supernatant of infected Vero cell cultures. Vero cells (9 × 10^5 cells/mL) and trypomastigotes were seeded at a ratio of 1:10 into culture bottles (75 cm^2) containing DMEM. After 4 h of incubation, the bottles were washed to remove unadhered trypomastigotes and incubated for another 96 h under CO2 atmosphere at 37°C. After 96 h of incubation, new trypomastigote forms were collected from the supernatant and used to perform the assays.
The lysis assay was performed in 96-well plates in technical triplicates (4 concentrations within the range 4–250 μM for butanolides and 200–1,600 μM for benznidazole), and the trypomastigotes (1 x 10^6 parasites/well) were incubated in 200 μL of DMEM (supplemented with 10% FBS, 100 μg/mL streptomycin, and 100 IU/mL penicillin) with the compounds at 37°C for 4 h. The test, negative control (1% DMSO), and positive control (benznidazole) parasites were fixed and counted in Neubauer's chamber.
as §1

[8] = tested on: epimastigotes of T. cruzi (Dm28c, TcI); parameters: method as in PMID 32327956; settings: 24 h of treatment; read-out: IC50 epimastigote forms of Dm28c strain; cited from earlier work
Hep G2 cells = tested on: Hep G2 cells; parameters: method as in PMID 22400995, PMID 18489163, PMID 17321026; settings: cited from earlier work
[9] = tested on: amastigotes of T. cruzi (Dm28c); parameters: method as in PMID 32327956; settings: 24 h of treatment; cited from earlier work
[10] = tested on: amastigotes and trypomastigotes; test: Ultrastructural analysis by transmission and scanning electron microscopy; assay type: cell-based, Trypanosoma cruzi
Procedure: Trypomastigotes were incubated with isoobtusilactone A (LC50/4 h of trypomastigote) for 2 h. The parasites were washed with cacodylate buffer (0.1 M) and fixed in cacodylate buffer (0.1 M) containing paraformaldehyde (4%) and glutaraldehyde (2.5%). The cells were then adhered to glass cover slips previously coated with poly-L-lysine, postfixed with osmium tetroxide (1%), dehydrated with graded ethanol series, and dried using a critical point dryer (Leica CPD 300). Finally, the samples were coated with a layer of gold in a sputtering device (Leica EM ACE 200).
The cells were fixed, dehydrated, and dried following the same procedure described above. Cell membrane of the host cells was randomly removed with the aid of an adhesive tape and the resulting samples were coated with a layer of gold in a sputtering device (Leica EM ACE 200).
Trypomastigotes were treated following the same procedure as described for scanning microscopy. After treatment, the cells were washed with cacodylate buffer (0.1 M) and fixed in cacodylate buffer (0.1 M) containing paraformaldehyde (4%) and glutaraldehyde (2.5%).
All samples were postfixed in osmium tetroxide (1%), dehydrated with acetone series, and embedded in EMbed 812® resin. […]

[11] = tested on: trypomastigotes infecting Vero cells; test: Infectivity assay (treatment before or during infection of Vero cells); assay type: cell-based, Trypanosoma cruzi
Procedure: The trypomastigotes were treated with isoobtusilactone A (LC50/4 h of trypomastigotes) for 4 h, while the control trypomastigotes were incubated with drug-free medium for 4 h. These trypomastigotes were then seeded into 96-well plates (4 × 10^4 parasites per well) with already adhered Vero cells at a ratio of 10 parasites per host cell.
After 20 h of infection, the infected Vero cell culture with intracellular amastigotes was fixed, stained with DAPI, photographed, and analyzed as described for antiproliferative assay.
Already adhered Vero cells were incubated with recently collected trypomastigotes for 4 h in a medium containing isoobtusilactone A (LC50/4 h of amastigotes) or in a drug-free medium (negative control). After 4 h, the host cells were washed and drug-free fresh medium was added. The cells were incubated for another 20 h and then fixed, stained, photographed, and analyzed as described above.

[12] = tested on: epimastigote forms of strain Dm28c; test: Inhibition of metacyclogenesis; assay type: cell-based; settings: Trypanosoma cruzi, 2 h exposure, then 72 h in drug-free medium, p = 0.009, read-out: less trypomastigotes than control (inhibition of metacyclogenesis)
Procedure: After the stress, the cells were washed and incubated with TAU drug-free supplemented with 10 mM L-proline, 50 mM L-sodium glutamate, 2 mM L-sodium aspartate and 10 mM D-glucose (TAU3AAG medium) for 72 h. The total number of differentiated trypomastigotes was counted in Neubauer's chamber to assess the inhibition percentage.

Vero cells (CCL-81) = tested on: Vero cells (CCL-81); parameters: method as in Nunes et al., 2020; settings: 24 hours of treatment; confidence interval in brackets; ref Nunes et al., 2020; read-out: Vero cells (CCL-81) CC50 (CI); cited from earlier work
[13] = Vero CC50 versus amastigote IC50, 24 hours
[14] = 4 h of treatment, Na = not active
[15] = treatment simultaneous to the infection, LC50/4 h of amastigote (20.75 μM)
[16] = trypomastigotes treated before infection, LC50/4 h of trypomastigote

O=C(Cn1ccnc1[N+](=O)[O-])NCc1ccccc1 [Benznidazole, benznidazole, reference compound]
IC50 [1]: 6.57 µM | SI (selectivity index) [1, 13]: 174 | IC50 [2]: > 1600 µM | IC50 [3]: > 1600 µM | CC50 at 4 h (Cytotoxicity assay (MTT)): > 1600 µM | CC50 at 24 h (Cytotoxicity assay (MTT)): 1140 µM | IC50 [4, 14]: > 1600 µM

Oc1ccc(/C=C/c2cc(O)cc(O)c2)cc1 [resveratrol]
reduction of infection (trypomastigotes [5]): by half

CCCCCCCCCCCCCCC/C=C(/C(=O)OC)[C@H](O)C(C)=O [secosubamolide A]
IC50 (trypomastigotes [6]): 12.5 µM | IC50 (amastigote forms): 12.3 µM

CC(C)=CCCC(C)=CC=O (mixture of isomers) [Citral]
inhibition of metacyclogenesis (T. cruzi; 30 μg/mL): 54%

CC(C)[C@H](NC(=O)OCc1ccccc1)C(=O)N[C@H](C=O)Cc1ccccc1 [MDL28170] (Cbz-Val-Phe-aldehyde)
inhibition of differentiation (T. cruzi; 50 μM, 96-hour treatment): ~50%

CCCCCCCCCCCCC/C=C1\CC(CO)OC1=O (stereo not drawn) [Majoranolide, majoranolide]
IC50 [1]: 21.9 µM | SI (selectivity index) [1, 13]: 7.57 | LC50 [7]: 71.7 µM | SI (selectivity index) [7]: 7.77 | CC50 at 4 h (Cytotoxicity assay (MTT)): 558 µM | CC50 at 24 h (Cytotoxicity assay (MTT)): 166 µM | activity at concentrations below 50 μg/mL in epimastigotes [4]: exhibited activity | IC50 [4, 14]: > 250 µM | SI (selectivity index) [4]: 0.94

CCCCCCCCCCCCC/C=C1\C(=O)O[C@@H](C)[C@H]1O [Epilitsenolide C1, epilitsenolide C1]
IC50 [8]: 7.77 µM | Epimastigotes (Dm28c) IC50 - 4h (CI) [4, 14]: did not show activity | activity at concentrations below 50 μg/mL in epimastigotes [4]: exhibited activity

C=C1OC(=O)/C(=C/CCCCCCCCCCCCC)[C@@H]1O [Isoobtusilactone A, isoobtusilactone A]
effect on tumor cells (Hep G2 cells): inducing apoptosis | inhibition of growth of amastigote forms [9]: more than 70% | IC50 [1]: 23 µM | SI (selectivity index) [1, 13]: 6.81 | SI (selectivity index) ([1]; amastigotes, 4 h, Vero cells): 17.88 | ultrastructure of treated intracellular amastigotes (TEM) ([10]; LC50/4 h of amastigotes, 4 h): strong and acute damage to the unique mitochondria | ultrastructure of treated trypomastigotes (TEM) ([10]; LC50/4 h of trypomastigote, 2 h): swelling and loss of internal content of mitochondria | IC50 [2]: 32.3 µM | SI (selectivity index) ([2]; epimastigotes strain Y, 4 h, Vero cells): 11.4 | IC50 [3]: 61.7 µM | SI (selectivity index) ([3]; epimastigotes strain CL Brener, 4 h, Vero cells): 6.0 | reduction in the number of amastigotes per cell [11, 15]: 65% | reduction in the number of infected cells [11, 15]: 43% | reduction in the number of amastigotes per cell [11, 16]: ~40% | reduction in the number of infected cells [11, 16]: 20% | LC50 [7]: 30.1 µM | SI (selectivity index) [7]: 12.34 | CC50 at 4 h (Cytotoxicity assay (MTT)): 371 µM | inhibition at 2.75 µM [12]: 43% | CC50 (Vero cells (CCL-81)): 156 µM | activity at concentrations below 50 μg/mL in epimastigotes [4]: exhibited activity | IC50 [4, 14]: 10.1 µM | SI (selectivity index) [4]: 36.7

C=C1OC(=O)/C(=C\CCCCCCCCCCCCCCC)[C@H]1O [isolinderanolide E]
IC50 (trypomastigotes [6]): 29.9 µM | IC50 (amastigote forms): 10.1 µM

isolinderanolide D
IC50 (trypomastigotes [6]): 12.9 µM | IC50 (amastigote forms): 25.3 µM
